Measurements from patent publication US20230235279A1, “AMNIOTIC-LIKE EPITHELIAL CELL GENERATION” (THE BABRAHAM INSTITUTE, priority 2020, published 2023).

How the values were obtained:
Type in all cases: cell-based, human
naïve hPSC = test: hALEC differentiation in AP after capacitation in different conditions; conditions: 3 days capacitation in the named condition, then AP; for hALEC differentiation after capacitation condition: morphology and markers
Description: (§1) FIGS. 3 (A to I). Signalling requirement for hALEC differentiation: FIG. 3(A) depicts experimental outline; naïve hPSC were capacitated in different conditions for 3 days (2uM XAV939 in N2B27 basal medium (“XAV939”), N2B27 basal medium only (“N2B27”), 1 uM A8301 in N2B27 basal medium (“A8301”), or medium E8 for culturing primed hPSCs (“E8”)), and then differentiated to hALEC in AP media. FIG. 3(B) is whole-well view of cells after hALEC induction stained with fluorescently labelled phalloidin. […] FIGS. 3(F) and (G) show images of cells stained with fluorescently labelled phalloidin and qRT-PCR results, respectively, of hALEC differentiated in the presence of alternative MAPK inhibitors (1 uM PD0325901, or 5 nM, 10 nM or 30 nM Trametinib). FIGS. 3(H) and (I) show images of cells stained with fluorescently labelled phalloidin and qRT-PCR results, respectively, for hALEC differentiated in the presence of alternative TGFb pathway inhibitors (1 uM A8301; 10 or 20 uM SB431542; 1 uM or 5 uM LY2109761; 5 uM or 10uM or 20 uM LY364947).
WNT inhibition is beneficial but not essential for the formative transition of hPSC, which is rather guided by their autocrine signalling (Rostovskaya et al. Development 2019). We induced formative transition by the range of conditions: (1) WNT inhibitor XAV939 in N2B27 basal medium; (2) simple withdrawal of the factors (PD0325901, Go6983, XAV939, LIF) for naïve hPSC maintenance from the medium and culturing in basal N2B27 conditions; (3) TGFb inhibitor A8301 in N2B27 basal medium; (4) E8 medium containing TGFb and FGF2 for culturing primed hPSC (Chen et al. Nat Methods 2011); all for 3 days, and then applied AP conditions for differentiation (FIG. 3A). […] Therefore, the ability to form hALEC capable of self-assembly into spheroids, is an intrinsic property of hPSC that is established during capacitation, rather than a property that is acquired in response to exogenous WNT inhibition.

[1] = tested on: hPSC after 3-5 days of the capacitation; test: Signalling requirement for hALEC formation (single, joint and alternative MAPK, TGFb, BMP inhibitors); conditions: for efficient formation of 3D bubble-like epithelial structures and upregulation of amnion markers: A8301 only, PD03 only or both (AP); for induction of hALEC by alternative MAPK or TGFb pathway inhibitor: Trametinib 5, 10 or 30 nM, SB431542 10 or 20 uM, LY2109761 1 or 5 uM, LY364947 5, 10 or 20 uM
Description: as §1
We next assessed whether the joint inhibition of the TGFb/Activin/Nodal and MAPK pathways is required for the formation of hALEC. We tested this using hPSC after 3-5 days of the capacitation in independent experiments by supplementing their media with either A8301 only (“A”), PD03 only (“P”), neither of the inhibitors (“none”), or both (“AP”).
Therefore, hALEC differentiation is induced specifically by inhibition of MAPK and TGFb pathways and not by other effects of PD0325901 and A8301.
The formation of cells expressing a subset of amnion markers has been previously reported after treating conventional primed hPSC with the growth factor BMP4 (Shao et al. Nat Mater 2017; Shao et al. Nat Commun 2017; Zheng et al. Nature 2019). However, this finding is at odds with the timing of events that occur during embryo development. In particular, primed hPSC closely resemble late post-implantation epiblast cells just prior to the onset of gastrulation (Nakamura et al. Nature 2016), a developmental stage that occurs in humans at around 11-12dpf (Carnegie stage, CS, 5c), which is several days after the emergence of the amnion in the implanting embryo at 7dpf (CS 5a) (The Virtual Human Embryo Atlas). Therefore, BMP-dependent route of differentiation reported in the aforementioned works can’t explain the mechanism of formation of amnion and amniotic cavity in primate embryos. Nevertheless, we tested whether BMP signalling was required for hALEC differentiation by adding a selective BMP receptor (ALK-2, -3, -6) inhibitor called LDN193189 to the AP-containing media (a combination referred to as “DAP” hereafter).

[2] = tested on: hPSC at different stages of capacitation; test: Competence window for hALEC differentiation during capacitation (AP or DAP); conditions: hPSC capacitated 8 days, AP medium plus BMP inhibitor
Text: FIGS. 4 (A to G). A competence window for hALEC differentiation during the formative transition: FIG. 4(A) depicts the experimental outline. hPSC (HNES1 line) were capacitated in XAV939 and analysed for their ability to form hALEC each day of capacitation, by treatment with AP of DAP for 4 days. […] FIG. 4(D) is a qRT-PCR for markers in hALEC differentiated using AP medium after various length of capacitation. FIG. 4(E) depicts the immunofluorescence for markers (OCT4, CDX2 and E-cadherin) during the time course of hALEC differentiation using naïve and partially capacitated HNES1. […] FIG. 4(G) is the flow cytometry analysis.
To identify a window during the progression from naïve to primed pluripotency where hPSC have the competence to form amnion, we systematically tested the ability of hPSC at different stages of capacitation to respond to hALEC-inducing cues (FIG. 4A). In these experiments, hALEC differentiation was induced using two alternative media compositions – AP and DAP – in order to assess whether the requirement for BMP pathway activity is altered this window of competence. […] The efficiency of hALEC formation was evaluated visually by their efficiency to form 3D epithelial spheres (FIGS. 4B and 4C), and markers expression (FIG. 4D). […]

Cc1cccc(-c2nn(C(=S)Nc3ccccc3)cc2-c2ccnc3ccccc23)n1 [A8301]
efficiency of hALEC differentiation after capacitation condition (naïve hPSC): consistently high
hALEC differentiation after capacitation condition (naïve hPSC): successfully differentiated to hALEC
efficient formation of 3D bubble-like epithelial structures and upregulation of amnion markers [1]: Only the cells treated by both inhibitors were able to efficiently form

COc1cc(-c2cc(-c3cccc(O)c3)cnc2N)cc(OC)c1OC [K02288]
extension of the window of competence by alternative BMP inhibitor [2]: extension of the window of competence was observed

c1ccc2c(-c3cnn4cc(-c5ccc(N6CCNCC6)cc5)cnc34)ccnc2c1 [LDN193189]
effect of blocking BMP signalling on hALEC differentiation ([1]; added to AP-containing media (DAP)): did not interfere with hALEC differentiation

c1ccc(-c2[nH]ncc2-c2ccnc3ccccc23)nc1 [LY364947]
induction of hALEC by alternative MAPK or TGFb pathway inhibitor [1]: successful induction of hALEC

c1ccc(-c2nn3c(c2-c2ccnc4cc(OCCN5CCOCC5)ccc24)CCC3)nc1 [LY2109761]
induction of hALEC by alternative MAPK or TGFb pathway inhibitor [1]: successful induction of hALEC

O=C(NOC[C@H](O)CO)c1ccc(F)c(F)c1Nc1ccc(I)cc1F [PD03]
efficient formation of 3D bubble-like epithelial structures and upregulation of amnion markers [1]: Only the cells treated by both inhibitors were able to efficiently form

NC(=O)c1ccc(-c2nc(-c3ccc4c(c3)OCO4)c(-c3ccccn3)[nH]2)cc1 [SB431542]
induction of hALEC by alternative MAPK or TGFb pathway inhibitor [1]: successful induction of hALEC

Oc1nc(-c2ccc(C(F)(F)F)cc2)nc2c1CSCC2 [XAV939]
efficiency of hALEC differentiation after capacitation condition (naïve hPSC): consistently high
hALEC differentiation after capacitation condition (naïve hPSC): successfully differentiated to hALEC
